The results in this text go back to US4311699A, “Aminoacid derivatives of cephalosporin compounds” (priority 1980, dated 1982).

≈ marks a conversion by molar mass, not a printed value. Where only a bound is given, the exact number is not on record here.

Experiment in all cases: in vitro antibacterial activity, minimal inhibitory concentration
Assay type in all cases: cell-based

One assay deals with E. coli Brig. The settings on record: for MIC: Escherichia coli. The source says: (§1) The compounds of the invention are new chemical compounds that are used as pharmacological agents and especially as broad spectrum antibacterial agents. They are active in vitro against strains of both gram-positive and gram-negative bacteria.
(§2) Minimal Inhibitory Concentration (μg/ml)

Another assay has as its system E. coli Vogel. The settings on record: for MIC: Escherichia coli.
Description: as §1, §2

In a further assay the test system is Entero. cloacae. The settings on record: for MIC: Enterobacter cloacae.
Description: as §1, §2

A further assay deals with Klebs. pneu.
Description: as §1, §2

For another assay, the system named is Prot. vulg.
Description: as §1, §2

The next assay relates to Pseudomonas #28. The settings on record: Pseudomonas #28, in vitro; read-out: Minimal Inhibitory Concentration.
Description: as §1, §2

The subject of the next assay is Pseudomonas BRK 12-4-4. Particulars: Pseudomonas BRK 12-4-4, in vitro; for MIC: BRK1244.
Description: as §1, §2

Another assay deals with Pseudomonas UI 18. Particulars: UI18; Pseudomonas UI 18, in vitro.
Description: as §1, §2

For the next assay, the system named is Serr. marces.
Description: as §1, §2

The next assay concerns Staph. aureus S18733. The settings on record: for MIC: Staphylococcus aureus.
Description: as §1, §2

The test system of a further assay is Staph. aureus UC-76. Particulars: Staph. aureus UC-76, in vitro; for MIC: Staphylococcus aureus, UC76.
Description: as §1, §2

Another assay deals with Strep. fec.
Description: as §1, §2

Take `CC(=O)N[C@H](C)C(=O)Nc1ccc(-c2ncc(C(=O)N[C@@H](C(=O)N[C@@H]3C(=O)N4C(C(=O)O)=C(COC(C)=O)CS[C@H]34)c3ccccc3)c(O)n2)cc1` [Example 1, N-[2-[4-(N-Acetyl-D-alanylamino)phenyl]-4-hydroxy-5-pyrimidinyl-carbonyl]-7-[D-2-amino-2-phenylacetamido]-3-acetoxymethyl-3-cephem-4-carboxylic acid]: the MIC is 25 µg/mL (≈ 34.2 µM) in the assay with E. coli Brig; 6.3 µg/mL (≈ 8.61 µM) against E. coli Vogel; 50 µg/mL (≈ 68.3 µM) in the assay with Entero. cloacae; 200 µg/mL (≈ 273 µM) against Klebs. pneu.; 12.5 µg/mL (≈ 17.1 µM) in the assay with Prot. vulg.; 3.1 µg/mL (≈ 4.24 µM) with Pseudomonas #28. In addition, the MIC with Pseudomonas BRK 12-4-4 was 3.1 µg/mL (≈ 4.24 µM); in the assay with Pseudomonas UI 18, 3.1 µg/mL (≈ 4.24 µM); against Serr. marces. it was 12.5 µg/mL (≈ 17.1 µM); in the assay with Staph. aureus S18733, 3.1 µg/mL (≈ 4.24 µM); against Staph. aureus UC-76, 0.8 µg/mL (≈ 1.09 µM); in the assay on Strep. fec., 50 µg/mL (≈ 68.3 µM).
For `CC(=O)NCC(=O)Nc1ccc(-c2ncc(C(=O)N[C@@H](C(=O)NC3C(=O)N4C(C(=O)O)=C(CSc5nnnn5C)CSC34)c3ccccc3)c(O)n2)cc1` (some centres unmarked) [Example 22], the MIC is 6.3 µg/mL (≈ 8.14 µM) in the assay with E. coli Brig; 0.8 µg/mL (≈ 1.03 µM) in the assay with E. coli Vogel; 6.3 µg/mL (≈ 8.14 µM) against Entero. cloacae; 0.8 µg/mL (≈ 1.03 µM) in the assay with Klebs. pneu.; 6.3 µg/mL (≈ 8.14 µM) with Prot. vulg.; 6.3 µg/mL (≈ 8.14 µM) in the assay on Pseudomonas #28. Also, the MIC against Pseudomonas BRK 12-4-4 came out at 12.5 µg/mL (≈ 16.2 µM); against Pseudomonas UI 18, 12.5 µg/mL (≈ 16.2 µM); with Serr. marces., 50 µg/mL (≈ 64.6 µM); in the assay on Staph. aureus S18733 it was 3.1 µg/mL (≈ 4.01 µM); in the assay with Staph. aureus UC-76, 1.6 µg/mL (≈ 2.07 µM); with Strep. fec. it was 50 µg/mL (≈ 64.6 µM).
`CC(=O)N[C@@H](C)C(=O)Nc1ccc(-c2ncc(C(=O)N[C@@H](C(=O)N[C@@H]3C(=O)N4C(C(=O)O)=C(COC(C)=O)CS[C@H]34)c3ccccc3)c(O)n2)cc1` [Example 10, N-[2-[4-(N-Acetyl-L-alanylamino)phenyl]-4-hydroxy-5-pyrimidinylcarbonyl]-7-[D-2-amino-2-phenylacetamido]-3-acetoxy-methyl-3-cephem-4-carboxylic acid]: the MIC with E. coli Brig came to 25 µg/mL (≈ 34.2 µM); with E. coli Vogel, 12.5 µg/mL (≈ 17.1 µM); in the assay on Entero. cloacae it was 50 µg/mL (≈ 68.3 µM); with Klebs. pneu., 25 µg/mL (≈ 34.2 µM); with Prot. vulg. it was 25 µg/mL (≈ 34.2 µM); in the assay with Pseudomonas #28, 6.3 µg/mL (≈ 8.61 µM). Further, the MIC was 12.5 µg/mL (≈ 17.1 µM) against Pseudomonas BRK 12-4-4; 6.3 µg/mL (≈ 8.61 µM) against Pseudomonas UI 18; greater than 50 µg/mL with Serr. marces.; 6.3 µg/mL (≈ 8.61 µM) in the assay on Staph. aureus S18733; 3.1 µg/mL (≈ 4.24 µM) in the assay on Staph. aureus UC-76; 50 µg/mL (≈ 68.3 µM) against Strep. fec..
`C[C@@H](N)C(=O)Nc1ccc(-c2ncc(C(=O)N[C@@H](C(=O)NC3C(=O)N4C(C(=O)O)=C(CSc5nnnn5CC(=O)O)CSC34)c3ccccc3)c(O)n2)cc1` (stereo partly drawn) [Example 38, N-[2-[4-(D-Alanylamino)phenyl]-4-hydroxy-5-pyrimidinylcarbonyl]-7-[D-2-amino-2-phenylacetamido]-3-[[(1-carboxymethyl-1H-tetrazol-5-yl)thio]-methyl]-3-cephem-4-carboxylic acid]: the MIC against E. coli Brig was 6.3 µg/mL (≈ 7.98 µM); against E. coli Vogel it was 0.8 µg/mL (≈ 1.01 µM); in the assay with Entero. cloacae it was 6.3 µg/mL (≈ 7.98 µM); with Klebs. pneu., 6.3 µg/mL (≈ 7.98 µM); against Prot. vulg., 0.8 µg/mL (≈ 1.01 µM); in the assay with Pseudomonas #28, 3.1 µg/mL (≈ 3.92 µM). For the same compound, the MIC in the assay with Pseudomonas BRK 12-4-4 was 3.1 µg/mL (≈ 3.92 µM); with Pseudomonas UI 18 it was 3.1 µg/mL (≈ 3.92 µM); against Serr. marces., 25 µg/mL (≈ 31.7 µM); in the assay with Staph. aureus S18733 it was 12.5 µg/mL (≈ 15.8 µM); against Staph. aureus UC-76, 6.3 µg/mL (≈ 7.98 µM); with Strep. fec., greater than 50 µg/mL.
For the compound `CC(=O)N[C@H](C)C(=O)Nc1ccc(-c2ncc(C(=O)N[C@@H](C(=O)N[C@@H]3C(=O)N4C(C(=O)O)=C(COC(C)=O)CS[C@H]34)c3ccc(O)cc3)c(O)n2)cc1` [Example 11, N-[2-[4-(N-Acetyl-D-alanylamino)phenyl]-4-hydroxy-5-pyrimidinylcarbonyl]-7-[D-2-amino-2-(4-hydroxyphenyl)-acetamido]-3-acetoxymethyl-3-cephem-4-carboxylic acid], the MIC was determined as 50 µg/mL (≈ 66.9 µM) with E. coli Brig; 6.3 µg/mL (≈ 8.43 µM) in the assay on E. coli Vogel; 50 µg/mL (≈ 66.9 µM) in the assay on Entero. cloacae; 25 µg/mL (≈ 33.4 µM) in the assay on Klebs. pneu.; 12.5 µg/mL (≈ 16.7 µM) in the assay with Prot. vulg.; 3.1 µg/mL (≈ 4.15 µM) in the assay with Pseudomonas #28. The MIC with Pseudomonas BRK 12-4-4 was 6.3 µg/mL (≈ 8.43 µM); against Pseudomonas UI 18, 6.3 µg/mL (≈ 8.43 µM); with Serr. marces., greater than 50 µg/mL; in the assay on Staph. aureus S18733, 25 µg/mL (≈ 33.4 µM); in the assay with Staph. aureus UC-76, 6.3 µg/mL (≈ 8.43 µM); in the assay on Strep. fec., 50 µg/mL (≈ 66.9 µM).
As to `CC(=O)NC(C)(C)C(=O)Nc1ccc(-c2ncc(C(=O)N[C@@H](C(=O)NC3C(=O)N4C(C(=O)O)=C(CSc5nnnn5C)CSC34)c3ccccc3)c(O)n2)cc1` (some centres unmarked) [Example 28], the MIC with E. coli Brig came out at 12.5 µg/mL (≈ 15.6 µM); in the assay on E. coli Vogel it was 3.1 µg/mL (≈ 3.87 µM); against Entero. cloacae it was 6.3 µg/mL (≈ 7.86 µM); with Klebs. pneu., 6.3 µg/mL (≈ 7.86 µM); against Prot. vulg., 25 µg/mL (≈ 31.2 µM); in the assay on Pseudomonas #28, 3.1 µg/mL (≈ 3.87 µM). Moreover, the MIC was 6.3 µg/mL (≈ 7.86 µM) with Pseudomonas BRK 12-4-4; 6.3 µg/mL (≈ 7.86 µM) in the assay on Pseudomonas UI 18; 50 µg/mL (≈ 62.4 µM) in the assay with Serr. marces.; 6.3 µg/mL (≈ 7.86 µM) against Staph. aureus S18733; 3.1 µg/mL (≈ 3.87 µM) in the assay with Staph. aureus UC-76; 50 µg/mL (≈ 62.4 µM) against Strep. fec..
On to `CC(=O)NC(CCC(N)=O)C(=O)Nc1ccc(-c2ncc(C(=O)N[C@@H](C(=O)N[C@@H]3C(=O)N4C(C(=O)O)=C(COC(C)=O)CS[C@H]34)c3ccccc3)c(O)n2)cc1` (mixture of isomers) [Example 14, N-[2-[4-(N-Acetyl-DL-glutaminylamino)phenyl]-4-hydroxy-5-pyrimidinylcarbonyl]-7-[D-2-amino-2phenylacetamido]-3-acetoxymethyl-3-cephem-4-carboxylic acid], for which the MIC in the assay on E. coli Brig turned out to be 25 µg/mL; in the assay with E. coli Vogel, 6.3 µg/mL; against Entero. cloacae it was 50 µg/mL; in the assay on Klebs. pneu. it was 12.5 µg/mL; in the assay on Prot. vulg., 25 µg/mL; with Pseudomonas #28, 6.3 µg/mL. In addition, the MIC was 12.5 µg/mL with Pseudomonas BRK 12-4-4; 12.5 µg/mL in the assay on Pseudomonas UI 18; greater than 50 µg/mL in the assay with Serr. marces.; 6.3 µg/mL against Staph. aureus S18733; 1.6 µg/mL in the assay with Staph. aureus UC-76; 50 µg/mL in the assay on Strep. fec..
On to `CC(=O)NCC(=O)Nc1ccc(-c2ncc(C(=O)N[C@@H](C(=O)N[C@@H]3C(=O)N4C(C(=O)O)=C(COC(C)=O)CS[C@H]34)c3ccccc3)c(O)n2)cc1` [Example 7, N-[2-[4-(N-Acetylglycylamino)phenyl]-4-hydroxy-5-pyrimidinylcarbonyl]-7-[D-2-amino-2-phenylacetamido]-3-acetoxymethyl-3-cephem-4-carboxylic acid], for which the MIC in the assay on Entero. cloacae was determined as 25 µg/mL (≈ 34.8 µM); in the assay with Klebs. pneu. it was 6.3 µg/mL (≈ 8.78 µM); in the assay on Pseudomonas UI 18 it was 12.5 µg/mL (≈ 17.4 µM); in the assay with Strep. fec., 50 µg/mL (≈ 69.7 µM).
For the compound `CC(=O)N1C[C@H](O)C[C@H]1C(=O)Nc1ccc(-c2ncc(C(=O)N[C@@H](C(=O)NC3C(=O)N4C(C(=O)O)=C(CSc5nnnn5CC(=O)O)CS[C@H]34)c3ccccc3)c(O)n2)cc1` (stereo partly drawn) [Example 36, N-[2-[4-(N-Acetyl-L-hydroxyprolylamino)phenyl]-4-hydroxy-5-pyrimidinylcarbonyl]-7-[D-2-amino-2-phenylacetamido]-3-[[(1-carboxymethyl-1H-tetrazol-5-yl)thio]methyl]-3-cephem-4-carboxylic acid], the “Minimal Inhibitory Concentration” value stood at 12.5 µg/mL with E. coli Brig; 6.3 µg/mL in the assay on E. coli Vogel; 12.5 µg/mL in the assay on Entero. cloacae; 6.3 µg/mL with Klebs. pneu.; 6.3 µg/mL in the assay with Prot. vulg.; 12.5 µg/mL with Pseudomonas BRK 12-4-4. Also, the “Minimal Inhibitory Concentration” value in the assay with Serr. marces. was 50 µg/mL; in the assay with Staph. aureus S18733 it was 25 µg/mL; in the assay on Staph. aureus UC-76 it was 12.5 µg/mL; in the assay on Strep. fec., greater than 50 µg/mL.
